For this assay, the target named is T1, β-catenin/BCL9 PPI (Homo sapiens, UniProt P35222).
T1 construct: Full-length β-catenin (residues 1-781) were cloned into a pET-28b vector; made in house; host or cells: E. coli BL21 DE3 (β-catenin); BCL9 peptide synthesized by InnoPep Inc
T1 sequence (P35222 1-781): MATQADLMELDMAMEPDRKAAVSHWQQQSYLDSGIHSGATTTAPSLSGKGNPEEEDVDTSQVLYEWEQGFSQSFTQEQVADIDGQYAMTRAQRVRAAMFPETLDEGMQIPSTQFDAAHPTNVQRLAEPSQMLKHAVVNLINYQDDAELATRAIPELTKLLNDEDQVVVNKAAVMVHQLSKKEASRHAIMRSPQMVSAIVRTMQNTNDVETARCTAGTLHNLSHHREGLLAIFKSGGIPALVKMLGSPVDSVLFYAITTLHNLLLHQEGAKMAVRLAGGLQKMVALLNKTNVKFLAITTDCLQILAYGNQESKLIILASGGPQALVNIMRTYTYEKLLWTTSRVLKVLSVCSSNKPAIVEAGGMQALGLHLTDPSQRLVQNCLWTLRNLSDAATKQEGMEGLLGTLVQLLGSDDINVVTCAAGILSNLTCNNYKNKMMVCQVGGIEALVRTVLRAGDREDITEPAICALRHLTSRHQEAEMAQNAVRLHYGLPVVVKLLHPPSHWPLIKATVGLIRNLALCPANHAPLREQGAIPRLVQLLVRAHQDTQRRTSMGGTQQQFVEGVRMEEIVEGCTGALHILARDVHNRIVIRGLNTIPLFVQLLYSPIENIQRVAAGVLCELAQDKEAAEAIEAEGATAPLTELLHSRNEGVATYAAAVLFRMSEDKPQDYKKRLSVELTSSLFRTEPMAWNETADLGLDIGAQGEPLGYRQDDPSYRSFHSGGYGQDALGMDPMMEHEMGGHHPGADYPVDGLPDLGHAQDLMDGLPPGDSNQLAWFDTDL
As to the kind of experiment: AlphaScreen competitive inhibition assay of the β-catenin/BCL9 PPI. The assay is classed as binding. The method, then: AlphaScreen Assays of β-Catenin and BCL9 Interaction. Experiments were performed in white opaque 384-well plates from PerkinElmer (Waltham, Mass.), and the samples were read on a Synergy 2 plate reader (Biotek, Winooski, Vt.) with excitation at 680 nm and emission at 570 nm. The standard AlphaScreen protocol was used with a sensitivity setting of 200. All dilutions were made in 1× assay buffer containing 25 mM Hepes (pH 7.4), 100 mM NaCl, 0.01% Triton X-100 and 0.1% BSA to minimize nonspecific interactions.
For the β-catenin/BCL9 assay, 5 nM biotinylated BCL9 and 40 nM His6-tagged β-catenin were incubated in assay buffer at 4° C. for 30 min. For the β-catenin/E-cadherin assay, 10 nM biotinylated human E-cadherin, and 40 nM His6-tagged human β-catenin were added and incubated in assay buffer at 4° C. for 30 min. Different concentrations of the tested inhibitor were added and incubated in 20 μL assay buffer at 4° C. for another 1 h. All of the assay plates were covered and gently mixed on an orbital shaker. The donor and acceptor beads were then added to the plates to a final concentration of 10 μg/mL in […]. The mixture was incubated for 1 h at 4° C. before detection. The IC50 value was determined by nonlinear least-square analysis of GraphPad Prism 5.0. […] All of the experiments were performed in triplicate and carried out in the presence of 1% DMSO for small-molecule inhibitors. Each compound was assayed at least by two independent experiments. The results were expressed as mean±standard deviation. The inhibitor selectivity for β-catenin/BCL9 over β-catenin/E-canderin interactions was defined as the ratio of the respective Ki value of β-catenin/E-cadherin interactions over that of β-catenin/BCL9 interactions.

Setting [1] is: Table 3, inhibitors 27-43, read-out: Ki.
Where [2] appears, read: Table 4, left half, inhibitors 44-48, read-out: Ki.
Setting [3] is: Table 4, right half, inhibitors 49-53, read-out: Ki ± SD.
The mark [4] stands for this setting: Table 5, inhibitors 54-62, read-out: Ki.

The structures appear in SMILES notation. Where two headings read alike, the source gives them in different places.

Experimental findings from patent US20220411372A1, “SMALL-MOLECULE INHIBITORS FOR THE B-CATENIN/B-CELL LYMPHOMA 9 PROTEIN-PROTEIN INTERACTION” (H. Lee Moffitt Cancer Center and Research Institute, Inc., priority 2019, published 2022) are described below.

With `Cc1n[nH]c(C)c1-c1ccc(CN(C(=O)[C@@H]2CCCN(c3cccc(OC(C)(C)C(=O)N4CCNCC4)c3)C2)C2CC2)cc1` [Compound 40, (R)-4-(2-(3-(3-(cyclopropyl(4-(3,5-dimethyl-1H-pyrazol-4-yl)benzyl)carbamoyl)piperidin-1-yl)phenoxy)-2-methylpropanoyl)piperazin-1-ium chloride], the Ki under setting [1] was under 10 µM.
Same read-out and setting: in the case of `Cc1noc(C)c1-c1ccc(CN(C(=O)[C@@H]2CCCN(c3cccc(OC(C)(C)C(=O)N4CCNCC4)c3)C2)C2CC2)cc1` [Compound 41, (R)-4-(2-(3-(3-(cyclopropyl(4-(3,5-dimethylisoxazol-4-yl)benzyl)carbamoyl)piperidin-1-yl)phenoxy)-2-methylpropanoyl)piperazin-1-ium chloride] it was under 30 µM.
The same measure, in the same setting: with `CC(C)(Oc1cccc(N2CCC[C@@H](C(=O)N(Cc3ccc(-c4c[nH]c5ccccc45)cc3)C3CC3)C2)c1)C(=O)N1CCNCC1` [Compound 42, (R)-4-(2-(3-(3-((4-(1H-indol-3-yl)benzyl)(cyclopropyl)carbamoyl)piperidin-1-yl)phenoxy)-2-methylpropanoyl)piperazin-1-ium] the figure was under 5 µM.
Turning to `CN(Cc1ccc(-c2cn[nH]c2)cc1)C(=O)[C@@H]1CCCN(c2cccc(OC(C)(C)C(=O)N3CCNCC3)c2)C1` [Compound 45, (R)-4-(2-(3-(3-((4-(1H-pyrazol-4-yl)benzyl)(methyl)carbamoyl)piperidin-1-yl)phenoxy)-2-methylpropanoyl)piperazin-1-ium chloride], the Ki under setting [2] was under 30 µM.
Turning to `CC(C)N(Cc1ccc(-c2cn[nH]c2)cc1)C(=O)[C@@H]1CCCN(c2cccc(OC(C)(C)C(=O)N3CCNCC3)c2)C1` [Compound 47, (R)-4-(2-(3-(3-((4-(1H-pyrazol-4-yl)benzyl)(isopropyl)carbamoyl)piperidin-1-yl)phenoxy)-2-methylpropanoyl)piperazin-1-ium chloride], the Ki under setting [2] was under 10 µM.
`CC(C)(Oc1cccc(N2CCC[C@@H](C(=O)N(Cc3ccc(-c4cn[nH]c4)cc3)CC3CC3)C2)c1)C(=O)N1CCNCC1` [Compound 48, (R)-4-(2-(3-(3-((4-(1H-pyrazol-4-yl)benzyl)(cyclopropylmethyl)carbamoyl)piperidin-1-yl)phenoxy)-2-methylpropanoyl)piperazin-1-ium chloride]: the Ki under setting [2] was under 90 µM.
Regarding `CC(C)(Oc1cccc(N2CCC[C@@H](C(=O)N(Cc3ccc(-c4cn[nH]c4)cc3)C3CCC3)C2)c1)C(=O)N1CCNCC1` [Compound 49, (R)-4-(2-(3-(3-((4-(1H-pyrazol-4-yl)benzyl)(cyclobutyl)carbamoyl)piperidin-1-yl)phenoxy)-2-methylpropanoyl)piperazin-1-ium chloride], the Ki under setting [3] is under 30 µM.
Same read-out and setting: with `CC(C)(Oc1cccc(N2CCC[C@@H](C(=O)N(Cc3ccc(-c4cn[nH]c4)cc3)C3CCCC3)C2)c1)C(=O)N1CCNCC1` [Compound 50, (R)-4-(2-(3-(3-((4-(1H-pyrazol-4-yl)benzyl)(cyclopentyl)carbamoyl)piperidin-1-yl)phenoxy)-2-methylpropanoyl)piperazin-1-ium chloride] the figure was under 10 µM.
Regarding `CC(C)(Oc1cccc(N2CCC[C@@H](C(=O)N(Cc3ccc(-c4cn[nH]c4)cc3)C3CCCCC3)C2)c1)C(=O)N1CCNCC1` [Compound 51, (R)-4-(2-(3-(3-((4-(1H-pyrazol-4-yl)benzyl)(cyclohexyl)carbamoyl)piperidin-1-yl)phenoxy)-2-methylpropanoyl)piperazin-1-ium chloride], the inhibition constant (Ki) under setting [3] is under 30 µM.
Turning to `CCOCCN(Cc1ccc(-c2cn[nH]c2)cc1)C(=O)[C@@H]1CCCN(c2cccc(OC(C)(C)C(=O)N3CCNCC3)c2)C1.Cl` [Compound 52, (R)-4-(2-(3-(3-((4-(1H-pyrazol-4-yl)benzyl)(2-ethoxyethyl)carbamoyl)piperidin-1-yl)phenoxy)-2-methylpropanoyl)piperazin-1-ium chloride], the Ki under setting [3] is under 5 µM. Besides, where the note is “linear alkyl R1 substitutions, FIG. 4A”, the “inhibitory activity (SAR, AlphaScreen)” value is recorded as “maintained the inhibitory activities”.
As to `CC(C)(Oc1cccc(N2CCC[C@@H](C(=O)N(CCN)Cc3ccc(-c4cn[nH]c4)cc3)C2)c1)C(=O)N1CCNCC1` [Compound 53, (R)-4-(2-(3-(3-((4-(1H-pyrazol-4-yl)benzyl)(2-ammonioethyl)carbamoyl)piperidin-1-yl)phenoxy)-2-methylpropanoyl)piperazin-1-ium chloride], under setting [3], the inhibition constant (Ki) was under 90 µM.
Regarding `CC(C)(Oc1cccc(N2CCC[C@@H](C(=O)N(Cc3ccc(-c4cn[nH]c4)cc3)C3CC3)C2)c1)C(=O)N1CCCNCC1` [Compound 54, (R)-4-(2-(3-(3-((4-(1H-pyrazol-4-yl)benzyl)(cyclopropyl)carbamoyl)piperidin-1-yl)phenoxy)-2-methylpropanoyl)-1,4-diazepan-1-ium chloride], under setting [4], the inhibition constant (Ki) was under 10 µM.
The same measure, in the same setting: with `CC(C)(Oc1cccc(N2CCC[C@@H](C(=O)N(Cc3ccc(-c4cn[nH]c4)cc3)C3CC3)C2)c1)C(=O)N1CCOCC1` [Compound 56, (R)-N-(4-(1H-pyrazol-4-yl)benzyl)-N-cyclopropyl-1-(3-((2-methyl-1-morpholino-1-oxopropan-2-yl)oxy)phenyl)piperidine-3-carboxamide] the figure was over 90 µM; with `CC(C)(Oc1cccc(N2CCC[C@@H](C(=O)N(Cc3ccc(-c4cn[nH]c4)cc3)C3CC3)C2)c1)C(=O)N1CCCCC1` [Compound 57, (R)-N-(4-(1H-pyrazol-4-yl)benzyl)-N-cyclopropyl-1-(3-((2-methyl-1-oxo-1-(piperidin-1-yl)propan-2-yl)oxy)phenyl)piperidine-3-carboxamide], over 90 µM; with `CC(C)(Oc1cccc(N2CCC[C@@H](C(=O)N(Cc3ccc(-c4cn[nH]c4)cc3)C3CC3)C2)c1)C(=O)N1C[C@H]2CNC[C@H]2C1` [Compound 58, (3aR,6aS)-5-(2-(3-((R)-3-((4-(1H-pyrazol-4-yl)benzyl)(cyclopropyl)carbamoyl)piperidin-1-yl)phenoxy)-2-methylpropanoyl)octahydropyrrolo[3,4-c]pyrrol-2-ium chloride], under 30 µM.
Same read-out and setting: in the case of `CC(C)(Oc1cccc(N2CCC[C@@H](C(=O)N(Cc3ccc(-c4cn[nH]c4)cc3)C3CC3)C2)c1)C(=O)N1CCC2(CCNC2)C1` (stereo partly drawn) [Compound 59, 7-(2-(3-((R)-3-((4-(1H-pyrazol-4-yl)benzyl)(cyclopropyl)carbamoyl)piperidin-1-yl)phenoxy)-2-methylpropanoyl)-2,7-diazaspiro[4.4]nonan-2-ium chloride] it was under 5 µM; in that of `CC(C)(Oc1cccc(N2CCC[C@@H](C(=O)N(Cc3ccc(-c4cn[nH]c4)cc3)C3CC3)C2)c1)C(=O)N1CC2(CCNCC2)C1` [Compound 60, (R)-2-(2-(3-(3-((4-(1H-pyrazol-4-yl)benzyl)(cyclopropyl)carbamoyl)piperidin-1-yl)phenoxy)-2-methylpropanoyl)-2,7-diazaspiro[3.5]nonan-7-ium 2,2,2-trifluoroacetate], under 30 µM.
`CC(C)(Oc1cccc(N2CCC[C@@H](C(=O)N(Cc3ccc(-c4cn[nH]c4)cc3)C3CC3)C2)c1)C(=O)N1CCC2(CNC2)C1` [Compound 61, (R)-6-(2-(3-(3-((4-(1H-pyrazol-4-yl)benzyl)(cyclopropyl)carbamoyl)piperidin-1-yl)phenoxy)-2-methylpropanoyl)-2,6-diazaspiro[3.4]octan-2-ium 2,2,2-trifluoroacetate]: the inhibitory constant (Ki) under setting [4] is under 30 µM.
